Reference: US10696989B2, “Biological method for preparing heme iron not derived from porcine blood” (INTRON BIOTECHNOLOGY, INC., priority 2017, dated 2020)

System: iron-deficiency-anemia-induced animals
Test: Effectiveness of heme iron salt on alleviating anemia in iron-deficiency-anemia-induced rats
Assay type: in vivo, Sprague-Dawley rats
Conditions: oral once a day, 0.1 mg Fe/500 μl saline
Description: The salt of the heme iron prepared according to the present invention was dissolved in saline and administered to iron-deficiency-anemia-induced animals, whereby the effectiveness of the salt of the heme iron prepared according to the present invention on alleviating anemia was evaluated. Specifically, thirty 7-week-old Sprague-Dawley rats (female) were divided into 3 groups of 10 rats per group, among which one group was fed with normal feed in an amount of 10% of body weight daily for one month (Group 1; control), and the remaining two groups were fed with iron-deficient feed in an amount of 10% of body weight daily for one month to induce iron-deficiency anemia (Group 2 and Group 3). After one month of feeding, it was confirmed that iron-deficiency anemia was induced in the individual rat belonging to Group 2 and Group 3. Then, one of the anemia-induced groups was orally administered once a day with saline alone (Group 2), and the other anemia-induced group was orally administered once a day with saline containing heme iron (0.1 mg Fe/500 μl saline) (Group 3). The administration continued for 30 days, and the occurrence of abnormal symptoms was monitored during the administration period. After 30 days of administration, blood was collected, and whether anemia was alleviated was evaluated. During 30 days of administration to Group 2 and Group 3, Group 1 was continuously fed with normal feed, and Group 2 and Group 3 were fed with iron-deficient feed. […]

[1] = female rats on iron-deficient feed, blood collected after 30 days

Substance: heme iron
- Weight of rats on 30th day after administration (female rats on iron-deficient feed, 30 days): 265.2 ± 1.1 g
- Blood test: Hematocrit [1]: 35.8 ± 1.9%
- Blood test: Hemoglobin content [1]: 14.2 ± 0.4 g/dL
- Blood test: Mean corpuscular volume [1]: 48.2 ± 2.2 fL
- Blood test: RBC [1]: 8.59 ± 0.1 ×10^6/μl
- Alleviation of iron-deficiency anemia (conclusion) (30 days): effective at alleviating iron-deficiency anemia
- Occurrence of abnormal symptoms during the administration period (30 days): no abnormal symptoms
